Measured values: patent US20240327506A1, “METHODS AND COMPOSITION FOR THE SELECTIVE ENHANCEMENT OF ADOPTIVE CELL THERAPY” (MaineHealth, priority 2023, published 2024)

Key:
[1] = test system: Cem/C1 T-cells; test: Transwell migration of Cem/C1 T-cells through collagen type-IV; format: cell-based; conditions: peptide, SDF-1
Protocol: (§1) FIGS. 4A-4H. […] Briefly, membranes from transwell migration chambers were coated with either native collagen type-IV or denatured collagen type-IV. T-cell variants were incubated with non-specific control peptide CP, or the RGDKGE (SEQ ID NO: 1)-containing collagen peptide (P2) and seed on the coated transwell membranes. T-cells were allowed to migrate in the presence or absence of SDF-1 added to the lower chamber for approximately 1.5 hours. Cell migration was quantified by counting the number of crystal violet stained cells that had migrated through to the underside of the coated membrane. FIG. 4A. Jurkat T-cell migration through denatured collagen type-IV in the presence of non-specific control peptide CP or RGDKGE (SEQ ID NO: 1)-containing collagen peptide P2 with SDF-1. FIG. 4B. […]
Given our new observations, and the fact that many tumor types as well as immunosuppressive macrophages can secrete the small soluble RGDKGE (SEQ ID NO: 1) collagen peptide, we next sought to determine whether this soluble collagen peptide could impact T-cell migration through denatured collagen type-IV, a critical ECM component shown to be selectively enriched in tumor vessels. […] Cell migration was quantified following staining cells with crystal violet (6,8). […]

[2] = test system: primary CD8+ T-cells from melanoma bearing C57BL/6 mice; test: Transwell migration of primary CD8+ T-cells through collagen type-IV; format: cell-based, murine; conditions: peptide
Protocol: as §1, with “4B. Jurkat T-cell migration through native collagen type-IV in the presence of non-specific control peptide CP or RGDKGE (SEQ ID NO: 1)-containing collagen peptide P2 with SDF-1. FIG. 4C. Cem/C1 T-cell migration through denatured collagen type-IV in the presence of non-specific control peptide CP or RGDKGE (SEQ ID NO: 1)-containing collagen peptide P2 with SDF-1. FIG. 4D.” for “4B.”
FIGS. 5A-5F. […] Cell migration was quantified by counting the number of crystal violet stained cells that had migrated through to the underside of the coated membrane. […]

[3] = test system: primary murine CD4+ Treg cells; test: Migration of primary CD4+ Treg cells on denatured collagen type-IV; format: cell-based; conditions: Treg from spleens of B16F10 tumor bearing mice, compared to CP
Protocol: Briefly, mice (C57BL/6) were injected subcutaneously with B16F10 cells. B16F10 tumors were allowed to grow for 14-days to allow formation of solid malignant melanomas. Spleens from tumor bearing mice were dissected and primary murine CD4+ Treg cells were isolated and analyzed for the effects of the soluble collagen peptide (P2) or control peptide (CP) on cell migration on denatured collagen type-IV. Data bars represent mean CD4+ Treg cell migration+SE from 3 wells per condition.
Given our surprising finding that CD4+ Treg cell migration is enhanced on denatured collagen-IV as compared to native collagen-IV, we next tested whether CD4+ Treg cell migration through denatured collagen-IV is altered by endogenously generated soluble RGDKGE (SEQ ID NO: 1) collagen peptide P2. For these experiments, mice (C57BL/6) were injected subcutaneously with B16F10 cells. B16F10 tumors were allowed to grow for 14-days to allow formation of solid malignant melanomas. Spleens from tumor bearing mice were dissected and primary murine CD4+ Treg cells were isolated and analyzed for the effects of the soluble collagen peptide (P2) or control peptide (CP) on cell migration on denatured collagen type-IV. […]

QGPRGDKGE (CQGPRGDKGEC; Synthetic: Synthetic collagen RGD containing peptide P-2) [Peptide P2, synthetic version of the soluble RGDKGE-containing collagen peptide]
Cem/C1 T-cell migration ([1]; denatured collagen type-IV): selectively inhibited | Cem/C1 T-cell migration ([1]; native collagen type-IV): neither the soluble RGDKGE (SEQ ID NO: 1) collagen peptide P2, nor the non-specific control peptide had any significant effect | primary murine CD8+ T-cell migration ([2]; denatured collagen type-IV, SDF-1, compared to CP): selectively inhibited | primary murine CD8+ T-cell migration ([2]; native collagen type-IV, SDF-1): neither the RGDKGE (SEQ ID NO: 1) collagen peptide P2, nor the non-specific control peptide CP had any significant impact | mean CD4+ Treg cell migration cell count [3]: significant increase
